# Results: US10710978B2, “STK4 inhibitors for treatment of hematologic malignancies” (Dana-Farber Cancer Institute, Inc., priority 2015, dated 2020)
# Key:
# MST4 = MST4 (Homo sapiens (Human), UniProt Q9P289); test: Z-lyte biochemical IC50 assay (Invitrogen); conditions: ATP concentration matched the Km
# CLK2 = CLK2 (Homo sapiens (Human), UniProt P49760); test: Ambit KINOSCAN assay; type: binding; conditions: read-out: percent control (%) at 1 uM
# Procedure: (§1) Kinase Selectivity Studies
# (§2) To directly test the kinase selectivity of a compound of the present application over other human protein kinases, the compounds were tested in an Ambit KINOSCAN assay. Ambit KINOSCAN assay is an ATP site dependent competition assay. T7 kinase-tagged phage strains were grown in parallel in 24- or 96-well blocks in an E. coli host derived from the BL21 strain. E. Coli were grown to log phase and infected with T7 phage from a frozen stock and incubated with shaking at about 32° C. until lysis (˜90 min). The lysates were centrifuged (6,000 g) and filtered ([…]) to remove cell debris. […] The liganded beads were blocked with excess biotin and washed with blocking buffer (Seablock (Pierce), 1% BSA, 0.05% Tween 20, 1 mM DTT) to remove unbound ligand and to reduce non-specific phage binding. Binding reactions were assembled by combining phage lysates, liganded affinity beads, and test compounds (i.e., compounds of the present application) in 1× binding buffer (20% SeaBlock, 0.17×PBS, 0.05% Tween […]). Test compounds were prepared 1000× stocks in DMSO and rapidly diluted into the aqueous environment (0.1% DMSO final). DMSO (0.1%) was used as a control. All reactions were carried out in polystyrene 96-well plates that had been pre-treated with blocking buffer in a final volume of 0.1 ml. […] The phage titer in the eluates was measured by standard plaque assays or quantitative PCR. Binding data were fit to the equation […]), where L is the lower baseline, H is the upper baseline, Kd(test) is the biding constant for the interaction between the test compound and the kinase, and [test] is the free test compound concentration. Binding constants are measured in duplicate on the same day of testing. For more details on the Ambit KINOSCAN assay see Fabian, M. A., et al. “A Small Molecule-Kinase Interaction Map for Clinical Kinase Inhibitors” Nat. Biotechol. 23(3), 2005, 329-336. (Also see Davis, M. I., et al. “Comprehensive analysis of kinase inhibitor selectivity.” Nat. Biotechnol. 29(11), 2011, 1046-1051)
# CSNK1E = CSNK1E (Homo sapiens (Human), UniProt P49674); test: Ambit KINOSCAN assay; type: binding
# Procedure: as §1, §2
# DYRK1B = DYRK1B (Homo sapiens (Human), UniProt Q9Y463); test: Ambit KINOSCAN assay; type: binding; conditions: read-out: percent control (%) at 1 uM
# Procedure: as §1, §2
# DRAK1 = DRAK1 (Homo sapiens (Human), UniProt Q9UEE5); test: Ambit KINOSCAN assay; type: binding; conditions: read-out: percent control (%) at 1 uM
# Procedure: as §1, §2
# DYRK2 = DYRK2 (Homo sapiens (Human), UniProt Q92630); test: Ambit KINOSCAN assay; type: binding; conditions: read-out: percent control (%) at 1 uM
# Procedure: as §1, §2
# MINK = MINK (Homo sapiens (Human), UniProt Q8N4C8); test: Ambit KINOSCAN assay; type: binding; conditions: read-out: percent control (%) at 1 uM
# Procedure: as §1, §2
# CLK1 = CLK1 (Homo sapiens (Human), UniProt P49759); test: Ambit KINOSCAN assay; type: binding; conditions: read-out: percent control (%) at 1 uM
# Procedure: as §1, §2
# CIT = CIT (Homo sapiens (Human), UniProt O14578); test: Ambit KINOSCAN assay; type: binding; conditions: read-out: percent control (%) at 1 uM
# Procedure: as §1, §2
# IRAK1 = IRAK1 (Homo sapiens (Human), UniProt P51617); test: Ambit KINOSCAN assay; type: binding
# Procedure: as §1, §2
# GSK3A = GSK3A (Homo sapiens (Human), UniProt P49840); test: Ambit KINOSCAN assay; type: binding; conditions: read-out: percent control (%) at 1 uM
# Procedure: as §1, §2
# DYRK1A = DYRK1A (Homo sapiens (Human), UniProt Q13627); test: Ambit KINOSCAN assay; type: binding; conditions: read-out: percent control (%) at 1 uM
# Procedure: as §1, §2
# VRK2 = VRK2 (Homo sapiens (Human), UniProt Q86Y07); test: Ambit KINOSCAN assay; type: binding; conditions: read-out: percent control (%) at 1 uM
# Procedure: as §1, §2
# CSNK1G3 = CSNK1G3 (Homo sapiens (Human), UniProt Q9Y6M4); test: Ambit KINOSCAN assay; type: binding
# Procedure: as §1, §2
# BMPR1B = BMPR1B (Homo sapiens (Human), UniProt O00238); test: Ambit KINOSCAN assay; type: binding; conditions: read-out: percent control (%) at 1 uM
# Procedure: as §1, §2
# CSNK1G2 = CSNK1G2 (Homo sapiens (Human), UniProt P78368); test: Ambit KINOSCAN assay; type: binding; conditions: read-out: percent control (%) at 1 uM
# Procedure: as §1, §2
# MST2 = MST2 (Homo sapiens (Human), UniProt Q13188); test: Ambit KINOSCAN assay; type: binding
# Procedure: as §1, §2
# CSNK1G1 = CSNK1G1 (Homo sapiens (Human), UniProt Q9HCP0); test: Ambit KINOSCAN assay; type: binding; conditions: read-out: percent control (%) at 1 uM
# Procedure: as §1, §2
# CSNK1A1 = CSNK1A1 (Homo sapiens (Human), UniProt P48729); test: Ambit KINOSCAN assay; type: binding; conditions: read-out: percent control (%) at 1 uM
# Procedure: as §1, §2
# DCAMKL3 = DCAMKL3 (Homo sapiens (Human), UniProt Q9C098); test: Ambit KINOSCAN assay; type: binding; conditions: read-out: percent control (%) at 1 uM
# Procedure: as §1, §2
# CSNK1A1L = CSNK1A1L (Homo sapiens (Human), UniProt Q8N752); test: Ambit KINOSCAN assay; type: binding; conditions: read-out: percent control (%) at 1 uM
# Procedure: as §1, §2
# CLK4 = CLK4 (Homo sapiens (Human), UniProt Q9HAZ1); test: Ambit KINOSCAN assay; type: binding; conditions: read-out: percent control (%) at 1 uM
# Procedure: as §1, §2
# [1] = read-out: percent control (%) at 1 uM
# Chain of CSNK1E (P49674 whole entry): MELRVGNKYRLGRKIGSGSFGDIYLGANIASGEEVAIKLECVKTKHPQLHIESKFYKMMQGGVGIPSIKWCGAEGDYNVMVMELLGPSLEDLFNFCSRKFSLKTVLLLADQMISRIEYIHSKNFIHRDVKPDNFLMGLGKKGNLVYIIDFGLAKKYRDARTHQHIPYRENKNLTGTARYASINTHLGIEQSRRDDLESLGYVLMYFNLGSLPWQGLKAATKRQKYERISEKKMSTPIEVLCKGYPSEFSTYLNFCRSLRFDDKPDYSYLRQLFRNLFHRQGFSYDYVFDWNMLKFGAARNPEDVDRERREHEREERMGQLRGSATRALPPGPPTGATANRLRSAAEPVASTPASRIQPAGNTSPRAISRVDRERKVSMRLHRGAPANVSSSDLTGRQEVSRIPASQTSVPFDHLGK
# Chain of MST2 (Q13188 whole entry): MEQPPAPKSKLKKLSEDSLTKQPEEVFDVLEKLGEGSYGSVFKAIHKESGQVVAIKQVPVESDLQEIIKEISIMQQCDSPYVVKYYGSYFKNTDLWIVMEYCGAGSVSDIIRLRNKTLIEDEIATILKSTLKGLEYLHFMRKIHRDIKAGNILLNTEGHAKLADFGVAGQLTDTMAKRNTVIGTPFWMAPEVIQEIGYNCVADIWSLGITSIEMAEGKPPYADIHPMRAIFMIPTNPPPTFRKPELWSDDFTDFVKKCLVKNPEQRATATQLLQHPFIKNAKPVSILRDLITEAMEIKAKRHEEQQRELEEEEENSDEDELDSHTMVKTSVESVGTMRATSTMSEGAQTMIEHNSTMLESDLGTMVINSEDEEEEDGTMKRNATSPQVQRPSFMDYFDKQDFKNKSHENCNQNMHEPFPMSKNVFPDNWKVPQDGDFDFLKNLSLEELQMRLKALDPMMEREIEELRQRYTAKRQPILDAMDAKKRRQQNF
# Chain of CSNK1G3 (Q9Y6M4 whole entry): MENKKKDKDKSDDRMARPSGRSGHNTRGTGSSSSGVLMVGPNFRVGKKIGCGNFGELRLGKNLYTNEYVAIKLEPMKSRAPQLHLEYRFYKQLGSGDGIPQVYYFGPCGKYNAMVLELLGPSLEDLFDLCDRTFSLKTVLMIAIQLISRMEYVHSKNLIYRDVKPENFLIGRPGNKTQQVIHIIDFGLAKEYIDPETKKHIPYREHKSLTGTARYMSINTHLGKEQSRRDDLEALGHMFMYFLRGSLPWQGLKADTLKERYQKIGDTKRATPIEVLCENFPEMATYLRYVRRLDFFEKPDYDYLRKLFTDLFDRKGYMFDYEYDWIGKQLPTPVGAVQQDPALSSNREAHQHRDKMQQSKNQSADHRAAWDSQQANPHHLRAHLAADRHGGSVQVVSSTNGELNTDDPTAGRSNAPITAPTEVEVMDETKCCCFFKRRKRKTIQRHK
# Chain of IRAK1 (P51617 whole entry): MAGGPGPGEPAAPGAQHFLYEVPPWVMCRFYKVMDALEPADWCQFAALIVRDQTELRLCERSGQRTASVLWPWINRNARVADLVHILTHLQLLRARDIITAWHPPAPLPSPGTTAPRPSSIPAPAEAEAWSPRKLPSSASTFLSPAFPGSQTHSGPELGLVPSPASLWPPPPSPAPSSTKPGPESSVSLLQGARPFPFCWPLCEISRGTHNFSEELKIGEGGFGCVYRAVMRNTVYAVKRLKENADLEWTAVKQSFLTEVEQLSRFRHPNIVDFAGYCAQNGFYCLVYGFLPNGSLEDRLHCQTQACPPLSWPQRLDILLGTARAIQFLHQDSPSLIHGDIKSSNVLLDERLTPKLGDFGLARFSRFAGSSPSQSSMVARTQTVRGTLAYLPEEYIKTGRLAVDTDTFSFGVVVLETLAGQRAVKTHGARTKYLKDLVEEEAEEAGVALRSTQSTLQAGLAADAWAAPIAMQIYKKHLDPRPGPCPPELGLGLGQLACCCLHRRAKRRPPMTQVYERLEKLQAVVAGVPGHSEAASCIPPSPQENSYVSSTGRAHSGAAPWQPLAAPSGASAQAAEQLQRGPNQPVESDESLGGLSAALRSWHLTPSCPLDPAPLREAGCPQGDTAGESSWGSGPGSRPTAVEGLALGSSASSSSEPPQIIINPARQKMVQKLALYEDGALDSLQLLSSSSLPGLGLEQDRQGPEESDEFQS
# Chain of DCAMKL3 (Q9C098 whole entry): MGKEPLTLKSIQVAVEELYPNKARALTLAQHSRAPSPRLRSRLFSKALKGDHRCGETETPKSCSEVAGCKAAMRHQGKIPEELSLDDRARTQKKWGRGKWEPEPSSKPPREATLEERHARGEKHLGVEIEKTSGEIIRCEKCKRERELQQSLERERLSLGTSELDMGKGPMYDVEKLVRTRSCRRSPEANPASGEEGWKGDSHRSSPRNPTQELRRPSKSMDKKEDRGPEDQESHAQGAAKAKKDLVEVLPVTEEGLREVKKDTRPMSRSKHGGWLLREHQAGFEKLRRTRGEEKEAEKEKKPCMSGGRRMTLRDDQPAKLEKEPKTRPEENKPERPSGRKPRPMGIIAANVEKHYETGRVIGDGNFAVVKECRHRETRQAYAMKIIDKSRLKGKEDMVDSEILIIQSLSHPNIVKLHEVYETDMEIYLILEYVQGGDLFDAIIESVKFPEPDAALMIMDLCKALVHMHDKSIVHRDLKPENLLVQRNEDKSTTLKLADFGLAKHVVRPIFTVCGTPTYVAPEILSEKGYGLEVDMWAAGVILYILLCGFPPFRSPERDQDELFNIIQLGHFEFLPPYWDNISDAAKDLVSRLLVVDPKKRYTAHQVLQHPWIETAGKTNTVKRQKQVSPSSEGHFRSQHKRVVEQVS
# Chain of MST4 (Q9P289 whole entry): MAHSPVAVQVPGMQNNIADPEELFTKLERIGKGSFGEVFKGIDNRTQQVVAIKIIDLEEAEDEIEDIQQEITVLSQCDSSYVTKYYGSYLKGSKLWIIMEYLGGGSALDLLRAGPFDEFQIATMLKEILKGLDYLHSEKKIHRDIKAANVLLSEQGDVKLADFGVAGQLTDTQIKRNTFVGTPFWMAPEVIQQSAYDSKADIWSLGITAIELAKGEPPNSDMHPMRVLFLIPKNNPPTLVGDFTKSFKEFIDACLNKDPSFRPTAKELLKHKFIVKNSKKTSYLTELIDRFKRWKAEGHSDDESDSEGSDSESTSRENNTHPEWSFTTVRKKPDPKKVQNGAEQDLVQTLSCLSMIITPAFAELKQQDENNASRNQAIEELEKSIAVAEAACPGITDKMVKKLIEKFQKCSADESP
# Chain of CSNK1A1L (Q8N752 whole entry): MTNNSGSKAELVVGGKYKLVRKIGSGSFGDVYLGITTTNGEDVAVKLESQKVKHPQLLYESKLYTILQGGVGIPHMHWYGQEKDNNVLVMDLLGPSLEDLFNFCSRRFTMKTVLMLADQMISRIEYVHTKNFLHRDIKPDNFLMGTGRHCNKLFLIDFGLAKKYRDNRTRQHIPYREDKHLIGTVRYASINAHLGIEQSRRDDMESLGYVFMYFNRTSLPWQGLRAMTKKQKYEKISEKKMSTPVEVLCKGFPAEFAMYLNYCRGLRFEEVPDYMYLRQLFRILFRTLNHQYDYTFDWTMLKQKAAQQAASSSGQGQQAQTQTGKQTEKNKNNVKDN
# Chain of MINK (Q8N4C8 whole entry): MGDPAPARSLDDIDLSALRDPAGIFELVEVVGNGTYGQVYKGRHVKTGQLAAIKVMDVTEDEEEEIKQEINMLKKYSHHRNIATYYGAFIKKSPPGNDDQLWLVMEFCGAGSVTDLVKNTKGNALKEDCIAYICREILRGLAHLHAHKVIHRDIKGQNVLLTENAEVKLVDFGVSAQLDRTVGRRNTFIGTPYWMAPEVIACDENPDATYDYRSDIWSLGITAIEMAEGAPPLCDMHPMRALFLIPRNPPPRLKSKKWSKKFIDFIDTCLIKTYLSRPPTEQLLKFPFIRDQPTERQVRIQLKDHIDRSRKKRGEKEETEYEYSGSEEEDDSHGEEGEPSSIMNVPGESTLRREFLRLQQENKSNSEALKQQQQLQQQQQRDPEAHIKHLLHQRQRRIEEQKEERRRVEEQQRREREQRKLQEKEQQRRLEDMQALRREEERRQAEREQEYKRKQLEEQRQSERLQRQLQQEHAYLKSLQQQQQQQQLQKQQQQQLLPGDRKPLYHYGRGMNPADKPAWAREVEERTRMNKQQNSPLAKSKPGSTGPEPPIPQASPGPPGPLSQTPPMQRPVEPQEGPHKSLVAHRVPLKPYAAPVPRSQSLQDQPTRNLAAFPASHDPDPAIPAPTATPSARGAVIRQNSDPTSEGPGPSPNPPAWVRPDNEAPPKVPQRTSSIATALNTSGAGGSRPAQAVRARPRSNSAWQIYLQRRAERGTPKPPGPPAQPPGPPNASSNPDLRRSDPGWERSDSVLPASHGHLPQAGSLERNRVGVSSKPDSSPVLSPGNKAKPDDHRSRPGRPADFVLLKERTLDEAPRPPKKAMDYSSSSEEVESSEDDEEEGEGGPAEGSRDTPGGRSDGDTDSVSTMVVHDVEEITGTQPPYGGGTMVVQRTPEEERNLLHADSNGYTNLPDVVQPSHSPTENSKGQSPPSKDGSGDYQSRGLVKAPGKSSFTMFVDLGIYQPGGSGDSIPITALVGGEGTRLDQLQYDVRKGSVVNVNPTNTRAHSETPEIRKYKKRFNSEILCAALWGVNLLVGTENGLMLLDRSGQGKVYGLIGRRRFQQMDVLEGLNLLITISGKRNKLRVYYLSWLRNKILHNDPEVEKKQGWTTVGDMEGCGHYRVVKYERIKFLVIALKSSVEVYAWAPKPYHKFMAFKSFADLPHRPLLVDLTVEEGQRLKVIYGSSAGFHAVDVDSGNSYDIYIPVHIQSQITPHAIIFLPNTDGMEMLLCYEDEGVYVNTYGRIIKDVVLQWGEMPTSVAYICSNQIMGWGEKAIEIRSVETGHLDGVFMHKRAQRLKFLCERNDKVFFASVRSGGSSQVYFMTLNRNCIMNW
compound,measurement,setting,value
"Nc1ncc(-c2cc([N+](=O)[O-])ccc2F)cc1-c1ccc2c(c1)CCNC2=O [Compound I-1, 6-(2-amino-5-(2-fluoro-5-nitrophenyl)pyridin-3-yl)-3,4-dihydroisoquinolin-1(2H)-one]",IC50,MST4,> 900 nM
same,remaining binding at 1 µM,CLK2,5%
same,IC50,"CSNK1E; Kinase Selectivity Data, CSNK1E",201 nM
same,remaining binding at 1 µM,CSNK1E; [1],0.1%
same,remaining binding at 1 µM,DYRK1B,0.75%
same,remaining binding at 1 µM,DRAK1,0.15%
same,remaining binding at 1 µM,DYRK2,3%
same,remaining binding at 1 µM,MINK,3.8%
same,remaining binding at 1 µM,CLK1,1.6%
same,remaining binding at 1 µM,CIT,0.05%
same,IC50,"IRAK1; Kinase Selectivity Data, IRAK1",110 nM
same,remaining binding at 1 µM,IRAK1; [1],2.8%
same,remaining binding at 1 µM,GSK3A,0%
same,remaining binding at 1 µM,DYRK1A,0%
same,remaining binding at 1 µM,VRK2,2.4%
same,IC50,"CSNK1G3; Kinase Selectivity Data, CSNK1G3",4.68 nM
same,remaining binding at 1 µM,CSNK1G3; [1],0%
same,remaining binding at 1 µM,BMPR1B,0.75%
same,remaining binding at 1 µM,CSNK1G2,4%
same,IC50,"MST2; Kinase Selectivity Data, MST2",42.6 nM
same,remaining binding at 1 µM,MST2; [1],1.2%
same,remaining binding at 1 µM,CSNK1G1,4.6%
same,remaining binding at 1 µM,CSNK1A1,3.7%
same,remaining binding at 1 µM,DCAMKL3,2.5%
same,remaining binding at 1 µM,CSNK1A1L,1.7%
same,remaining binding at 1 µM,CLK4,2.6%
